In the test the test system is Aβ(1-42). The test can be described thus: Cell-based γ-secretase assay, Aβ(1-42) inhibition. The note with it: Homo sapiens; SH-SY5Y neuroblastoma cells overexpressing SPA4CT. Here is the method: Cell-Based γ-Secretase Assay
Human SH-SY5Y neuroblastoma cells overexpressing the direct γ-secretase substrate SPA4CT were induced with sodium butyrate (10 mM) for 4 hours prior to plating. Cells were plated at 35,000 cells/well/100 μl in 96-well plates in phenol red-free MEM/10% FBS, 50 mM HEPES, 1% Glutamine and incubated for 2 hrs at 37° C., 5% CO2.
Compounds for testing were diluted into Me2SO to give a ten point dose-response curve. Typically 10 μl of these diluted compounds in Me2SO were further diluted into 182 μl dilution buffer (phenol red-free MEM/10% FBS, 50 mM HEPES, 1% Glutamine) and 10 μl of each dilution was added to the cells in 96-well plates (yielding a final Me2SO concentration of 0.5%). Appropriate vehicle and inhibitor controls were used to determine the window of the assay.
After incubation overnight at 37° C., 5% CO2, 25 μl and 50 μl media were transferred into a standard Meso avidin-coated 96-well plate for detection of Aβ(40) and Aβ(42) peptides, respectively. 25 μl Meso Assay buffer (PBS, 2% BSA, 0.2% Tween-20) was added to the Aβ(40) wells followed by the addition of 25 μl of the respective antibody premixes to the wells:
Aβ(40) premix: 1 μg/ml ruthenylated G2-10 antibody, 4 μg/ml; and biotinylated 4G8 antibody diluted in Origen buffer
Aβ(42) premix: 1 μg/ml ruthenylated G2-11 antibody, 4 μg/ml; and biotinylated 4G8 antibody diluted in Origen buffer
(Biotinylated 4G8 antibody supplied by Signet Pathology Ltd; G2-10 and G2-11 antibodies supplied by Chemicon)
After overnight incubation of the assay plates on a shaker at 4° C., the Meso Scale Sector 6000 Imager was calibrated according to the manufacturer's instructions. After washing the plates 3 times with 150 μl of PBS per well, 150 μl Meso Scale Discovery read buffer was added to each well and the plates were read on the Sector 6000 Imager according to the manufacturer's instructions.
LD50 and IC50 values for inhibition of Aβ(40) and Aβ(42) were calculated by nonlinear regression fit analysis using the appropriate software (eg. Excel fit). The total signal and the background were defined by the corresponding Me2SO and inhibitor controls.

Counter-ions that a name gives are not always drawn.

On to `COc1cc(-c2cn(Cc3cc(C(F)(F)F)cc(C(F)(F)F)c3)nn2)ccc1-c1ccnc(C)c1` [Example 1, 4-{4-[1-(3,5-Bis-trifluoromethyl-benzyl)-1H-1,2,3-triazol-4-yl]-2-methoxy-phenyl}-2-methyl-pyridine trifluoromethansulfonate salt], for which it took 203 nM to reach half-maximal inhibition (IC50).
On to `COc1cc(-c2cn(Cc3ccc(C(C)(C)C)cc3)nn2)ccc1-c1ccnc(C)c1` [Example 3], for which half-maximal inhibition (IC50) was put at 335 nM.
Next, `COc1cc(-c2cn(Cc3cc(F)cc(Cl)c3)nn2)ccc1-c1ccnc(C)c1` [Example 4]: 598 nM; `COc1cc(-c2cn(Cc3ccc(-c4nc5ccccc5o4)cc3)nn2)ccc1-c1ccnc(C)c1` [Example 5]: 392 nM.
For the compound `COc1cc(-c2cn(Cc3ccc4c(c3)C(C)(C)CCC4(C)C)nn2)ccc1-c1ccnc(C)c1` [Example 6], half-maximal inhibition (IC50) was put at 172 nM.

These data come from patent US20110313001A1, “TRIAZOLE DERIVATIVES FOR TREATMENT OF ALZHEIMER'S DISEASE” (priority 2008, published 2011).
